In patent US20250017856A1, “CO-FORMULATION AND CO-DELIVERY OF IONIZABLE COLLOID FORMING DRUGS WITH NUCLEIC ACIDS” (THE GOVERNING COUNCIL OF THE UNIVERSITY OF TORONTO, priority 2023, published 2025):
Several values for one entry are separate records, joined by “and”; a condition that tells them apart may be missing. Equal entries are not always repeated.

Legend:
[1] = Hydrodynamic diameter and polydispersity index by dynamic light scattering; format: physicochemical; details: for Hydrodynamic diameter (nm) / PDI: FxNP, siFLuc, DSPC
From the text: (§1) [NT] antisense (SEQ ID NO: 2): [NT] where “d” denotes a DNA base), siFLuc-2 (sense (SEQ ID NO: 3): [NT] antisense (SEQ ID NO: 4): [NT] where “d” denotes a DNA base and “m” indicates a 2'-O-methyl RNA base), sinLuc (sense (SEQ ID NO: 5): [NT] antisense SEQ ID NO: 6): [NT] where “d” denotes a DNA base), […]1 (sense (SEQ ID NO: 7): [NT] antisense (SEQ ID NO: 8): [NT] where “d” denotes a DNA base and “m” indicates a 2'-O-methyl RNA base), siNT (sense (SEQ ID NO: 9): [NT] antisense (SEQ ID NO: 10): [NT] where “d” denotes a DNA base and “m” indicates a 2'-O-methyl RNA base), mFLuc (EZ Cap Firefly Luciferase mRNA (5-moUTP), ApexBio), rRNA or RNA from Torula utilis yeast (T.U. RNA) was diluted in citrate buffer (50 or 25 mM, pH 4), malate buffer (25 mM, pH 4.0) or acetate buffer (25 mM, pH 4.0). A lipid/drug mix concentration of 5.5 mM was used with a total flow rate of 9 mL/min at a 3:1 ratio of aqueous to organic phase. […] After formulation, buffer exchange into PBS or Tris-buffered saline (TBS; pH 8.5) was performed using Amicon Ultra-4 centrifugal filters (molecular weight cut-off 10 kDa). Hydrodynamic diameter, polydispersity index (PDI), and scattering intensity were measured by dynamic light scattering (DLS) using a DynaPro Plate Reader II (Wyatt Technologies). The instrument was configured with a 60 mW 830 nm laser and a detector angle of 158°. A 25 μL sample of each formulation was pipetted into each well of a 384-well plate and measured with 20 acquisitions per sample at 25° C. […] Quant-iT RiboGreen reagent was added, and fluorescence intensity was quantified using a Tecan Infinite […] plate reader.

[2] = Zeta potential (Malvern Zetasizer); format: physicochemical; details: FxNP, siFLuc, DSPC
Procedure: Zeta potential was measured by diluting FXNPs in phosphate to an ion concentration of 1 mM and using a Malvern Zetasizer Nano ZS instrument.

[3] = RNA encapsulation efficiency (modified Quant-iT RiboGreen assay) and loading; format: physicochemical; details: for Encapsulation efficiency (%) / Small molecule drug mass % / siRNA mass %: FxNP, siFLuc, DSPC
From the text: as §1

[4] = ionizable compound (fulvestrant analog); cited from earlier work
[5] = tested on: firefly luciferase expression in mouse liver; assay: In vivo liver bioluminescence after i.v. injection of mFLuc nanoparticles; set-up: species or system BALB/c mice; details: tail vein, 1 mg/kg mRNA, 4 and 24 h
Procedure: Animal study protocols were approved by the Animal Care Committee at the University of Toronto and experiments were performed in accordance with the Guide to Care and Use of Experimental Animals (Canadian Council on Animal Care). FXNPs with encapsulated mFLuc and DIR (0.5 mol %) were administered (1 mg/kg in terms of mRNA) via tail vein injection to BALB/c mice. After 4 h and 24 h, mice were anesthetized using isoflurane and injected intraperitoneally with 150 mg/kg VivoGlo™ luciferin (Promega, Madison, WI). Whole-body luminescence was acquired by a PerkinElmer In-Vivo Imaging System Spectrum instrument after 10-20 minutes.

FLuc in SKOV3-FLuc cells = assay: Model gene knockdown, firefly luciferase; format: cell-based
Procedure: For single-dose studies, 5×10^3 SKOV3-FLuc or 2×10^3 Vero-nLucP cells in 100 μL were plated in each well of a white-wall 96-well plate (Costar 3610) and allowed to adhere overnight. FXNP suspensions were diluted in PBS and 10 μL of each tested formulation was dosed in triplicate, followed by 100 μL of complete cell growth media to promote mixing. The final encapsulated siRNA concentration in each well was 50.0 nM. For dose-response studies, 1.25×10^3 SKOV3-FLuc cells in 25 μL were plated in each well of a white-wall 384-well plate (Greiner Bio-one 781073) and allowed to adhere overnight. Nanoparticle suspensions were diluted in PBS and 5 μL of each tested formulation was dosed in triplicate, followed by 20 μL of complete cell growth media to promote mixing. The final encapsulated siRNA concentration in each well is specified in each figure. For all studies, the plate was incubated for 24 h followed by removal of the media. For SKOV3-FLuc cells, fresh media was added, and the plate was incubated for an additional 24 h before removal of the media. Total cellular metabolic activity was quantified by addition of PrestoBlue™ according to the manufacturer's instructions, after which the reagent was subsequently removed, and expression of either firefly luciferase (SKOV3-FLuc) or nano luciferase (Vero-nLucP) was determined by Steady-Glo® Luciferase Assay System or Nano-Glo® Luciferase Assay System, respectively. Luminescence was measured using a Tecan Infinite Pro 200 plate reader. Cell metabolic activity and reporter gene expression are represented relative to cells treated with an equivalent volume of PBS. Reporter gene expression is normalized to cell metabolic activity. For dose-response studies, IC50 values were determined by non-linear regression analysis using eq. 3

T47D-R cells = assay: Confirmation of palbociclib resistance; format: cell-based; details: Homo sapiens; palbociclib-resistant T47D cells (T47D-R)
Procedure: SKOV3 cells were obtained from ATCC. SKOV3-luc cells were obtained from Cell Biolabs. Vero-E6-nLucP cells were a generous gift from Roman Melnyk. T47D cells were a gift from B. Neel (University Health Network). Palbociclib-resistant T47D cells (T47D-R) were developed by dose escalation of palbociclib up to 500-1000 nM over 6-12 months and was confirmed by a palbociclib IC50 greater than […]. Parental T47D cells (T47D-P) were cultured over the same time frame without palbociclib treatment. Cells were maintained in a humified incubator at 37° C. with 5% atmospheric CO2. RPMI 1640 (SKOV3, T47D) or EMEM (Vero-E6) were used as a base media. Cells were grown in 75 cm^2 tissue culture flasks with 10 mL of media supplemented with 10% FBS, 10 UI/mL penicillin and 10 μg/mL streptomycin. The cells were passaged once per week following detachment with trypsin-EDTA, replacement of the supernatant with fresh media, and subculture into a new flask with fresh media. Subculture ratios between 1:4 and 1:50 were used.

SKOV3 cells = assay: Cellular uptake of DiD-labelled nanoparticles by fluorescence microscopy; format: cell-based; details: with DOPC or DSPE; 20 nM T.U. RNA, 3 h
Procedure: 2.5-5.0×10^3 SKOV3 cells or 1.0×10^4 T47D cells in 25 μL were plated in each well of a 384-well plate (Greiner Bio-One 781097) and allowed to adhere overnight. For endocytosis blocking studies, cells were washed once with Hank's Balanced Salt Solution (HBSS), and then fresh media containing an endocytosis blocker was added and plates were incubated at 37° C. for 30 min prior to dosing. For ApoE supplementation studies and endocytosis-blocking studies, serum free media, serum free media supplemented with ApoE (1.5 μg/mL), complete media, or complete media with hydroxydynasore (20 μM) was added for 30 min prior to dosing). […] The plate was incubated at 37° C. for 3 h after which the media was removed, and the cells were washed with HBSS, fixed for 15 min with 4% (m/v) PFA in PBS, and stained for 15 min with 5 μg/mL Hoechst in PBS before imaging by wide-field fluorescence microscopy imaging as described below.
Fluorescence images were acquired using a Zeiss Apotome Live Cell System (Axio Observer Z.1 inverted fluorescence microscope) with a long working distance 40× Plan Neofluor objective (NA=0.6, Carl Zeiss Canada), and X-Cite 120 LED fluorescence lamp (Lumen Dynamics), and an […]

[6] = no cholesterol versus standard formulation

Q: With `CC12CCC3c4ccc(O)cc4CC(CCCCCCCCCS(=O)(CCCC(F)(F)C(F)(F)F)=NC(=O)CN)C3C1CCC2O` (centres unmarked) [7m] as the compound, how does the “Hydrodynamic diameter (nm)” value [1] read?
A: 447.8 nm

Q: And the PDI [1]?
A: Multimodal

Q: What about the “Zeta potential (mV)” value [2] of the same compound?
A: −6.62 mV

Q: And the “Encapsulation efficiency (%)” value [3]?
A: 88.1%

Q: What about the “Small molecule drug mass %” value [3] of the same compound?
A: 53.4%

Q: What about the siRNA mass % [3] of the same compound?
A: 4.7%

Q: What about the pKa [4] of the same compound?
A: 8.1

Q: Which “Hydrodynamic diameter (nm)” value [1] does the source give for `C[C@]12CC[C@@H]3c4ccc(O)cc4C[C@@H](CCCCCCCCC[S+]([O-])CCCC(F)(F)C(F)(F)F)[C@H]3[C@@H]1CC[C@@H]2O` (some centres unmarked) [FV, fulvestrant, reference compound] here?
A: 204.7 nm

Q: And the PDI [1]?
A: 0.102

Q: And the “Zeta potential (mV)” value [2]?
A: −19.23 mV

Q: And the liver bioluminescence [5]?
A: did not show bioluminescence above the baseline

Q: What about the “encapsulation and loading efficiencies of siRNA (in words)” value ([3]; DSPC formulations) of the same compound?
A: low

Q: What about the “Encapsulation efficiency (%)” value [3] of the same compound?
A: 14.5%

Q: What about the “Small molecule drug mass %” value [3] of the same compound?
A: 52.8%

Q: What about the siRNA mass % [3] of the same compound?
A: 0.9%

Q: Which “effect of removing netarsudil without replacement” value (FLuc in SKOV3-FLuc cells; netarsudil:SM-102 0:10) does the source give for `CCCCCCCCCCCOC(=O)CCCCCN(CCO)CCCCCCCC(=O)OC(CCCCCCCC)CCCCCCCC` [SM-102] here?
A: decrease in potency and loss of encapsulated siRNA

Q: And the “change of IC50 on replacing all of the netarsudil with SM-102” value (FLuc in SKOV3-FLuc cells; netarsudil:SM-102 0:50)?
A: non-significant decrease in IC50

Q: Which results are given for `Cc1ccc(C(=O)OCc2ccc([C@@H](CN)C(=O)Nc3ccc4cnccc4c3)cc2)c(C)c1` [netarsudil]?
A: IC50 (FLuc in SKOV3-FLuc cells; 50:0 netarsudil:SM-102, narrowed concentration range (<2 nM)): > 2 nM; IC50 (FLuc in SKOV3-FLuc cells; TBS, 40 mol % netarsudil with 10 mol % ALC-0315): 0.32 nM; IC50 (FLuc in SKOV3-FLuc cells; TBS, 40 mol % netarsudil with 10 mol % MC3): 0.77 nM; IC50 (FLuc in SKOV3-FLuc cells; TBS, 40 mol % netarsudil with 10 mol % SM-102): 0.16 nM; IC50 (FLuc in SKOV3-FLuc cells; neutralized in TBS, 50 mol % netarsudil, no ionizable lipid): 3.8 nM

Q: Which IC50 (T47D-R cells) does the source give for `CC(=O)c1c(C)c2cnc(Nc3ccc(N4CCNCC4)cn3)nc2n(C2CCCC2)c1=O` [palbociclib] here?
A: > 1000 nM

Q: For `Fc1ccc(-n2cc(CCCCN3CCC4(CC3)OCc3ccccc34)c3ccccc32)cc1` [siramesine, reference compound], which “increase in particle size on removal of cholesterol” value [1, 6] is on record?
A: 4 fold

Q: What about the particle size ([1]; siRNA, standard formulation) of the same compound?
A: ~100 nm

Q: What about the “uptake relative to DSPC-based nanoparticles” value (SKOV3 cells) of the same compound?
A: significantly improve uptake

Q: And the siRNA encapsulation efficiency ([3]; natively ionizable drug in place of fulvestrant analog, standard formulation)?
A: ~85% and ~95%

Q: What about the “loss of encapsulated siRNA on removal of cholesterol” value [3, 6] of the same compound?
A: ~70%

Q: And the “nanoparticle formation with RNA cargos of varying molecular weight” value ([3]; siRNA, T.U. RNA, rRNA, mRNA)?
A: form nanoparticles encapsulating a range of RNA cargos
